Measurements from ChEMBL document CHEMBL1139410, “Potent CCR4 antagonists: synthesis, evaluation, and docking study of 2,4-diaminoquinazolines” (Bioorg Med Chem, 2008).

Assays:
[1] = target: T1, C-C chemokine receptor type 4 (Homo sapiens, UniProt P51679); test: Antagonist activity at human CCR4 receptor by [35S]GTPgammaS binding assay; assay type: functional
T1 sequence (P51679 whole entry): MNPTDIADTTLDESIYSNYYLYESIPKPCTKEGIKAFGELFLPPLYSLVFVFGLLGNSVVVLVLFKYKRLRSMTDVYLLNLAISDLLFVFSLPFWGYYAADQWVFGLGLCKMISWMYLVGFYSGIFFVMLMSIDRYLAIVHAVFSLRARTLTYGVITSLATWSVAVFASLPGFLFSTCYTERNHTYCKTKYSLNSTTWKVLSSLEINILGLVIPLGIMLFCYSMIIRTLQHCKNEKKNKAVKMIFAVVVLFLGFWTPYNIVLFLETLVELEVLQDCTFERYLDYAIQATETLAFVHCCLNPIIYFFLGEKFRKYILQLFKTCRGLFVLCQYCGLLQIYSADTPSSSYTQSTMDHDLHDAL

[2] = target: T2, C-C chemokine receptor type 4 (Homo sapiens) (UniProt P51679); test: Antagonist activity at human CCR4 receptor assessed as inhibition of CCL22-induced chemotaxis at 1 uM by bioluminescent assay; assay type: functional
T2 sequence (whole entry): T1 sequence (P51679 whole entry)

[3] = target: T3, C-C chemokine receptor type 4 (Mus musculus) (UniProt P51680); test: Antagonist activity at mouse CCR4 receptor assessed as inhibition of CCL22-induced chemotaxis at 1 uM by bioluminescent assay; assay type: functional
T3 sequence (whole entry): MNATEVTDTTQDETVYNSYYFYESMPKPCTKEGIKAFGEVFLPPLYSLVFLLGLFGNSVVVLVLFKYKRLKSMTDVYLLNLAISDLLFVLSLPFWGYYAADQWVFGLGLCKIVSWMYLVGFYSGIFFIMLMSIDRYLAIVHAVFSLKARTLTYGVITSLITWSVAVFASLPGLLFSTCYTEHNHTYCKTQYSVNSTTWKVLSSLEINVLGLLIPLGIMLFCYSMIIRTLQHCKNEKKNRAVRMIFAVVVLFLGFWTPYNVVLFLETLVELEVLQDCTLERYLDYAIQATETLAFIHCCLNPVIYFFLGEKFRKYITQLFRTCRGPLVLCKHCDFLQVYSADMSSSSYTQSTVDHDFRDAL

[4] = target: T1, C-C chemokine receptor type 4; test: Displacement of […]CCL22 from human CCR4 receptor by scintillation proximity assay
Mus musculus = test: Antiinflammatory activity against oxazolone-induced contact hypersensitivity in acute dermatitis BALB/c mouse model assessed as inhibition of ear swelling at 30 mg/kg, sc administered twice daily before 0.5 hrs and after 8 hrs of oxazolone challenge assessed after 24 hrs; assay type: functional; conditions: route subcutaneous

SMILES	IC50 [1]	inhibition [2]	inhibition [3]	IC50 [4]	inhibition in vivo at 30 mg/kg (Mus musculus)
COc1cc2nc(N3CCC(N4CCCC4)CC3)nc(Nc3cccc(Br)c3)c2cc1OC	220 nM	36%	11%	510 nM	–
COc1cc2nc(N3CCC(N4CCCC4)CC3)nc(Nc3ccc(F)c(F)c3)c2cc1OC	25 nM	–	–	–	–
COc1cc2nc(N3CCCN(CCN4CCCCC4)CC3)nc(Nc3ccc(Cl)cc3)c2cc1OC	130 nM	–	–	–	–
COc1cc2nc(N3CCC(N(C)CCO)CC3)nc(Nc3ccc(Cl)cc3)c2cc1OC	98 nM	47%	–	–	–
COc1cc2nc(N3CCC(N(C)CCCO)CC3)nc(Nc3ccc(Cl)cc3)c2cc1OC	43 nM	–	32%	–	–
COc1cc2nc(N3CCC(N(C)CCCCO)CC3)nc(Nc3ccc(Cl)cc3)c2cc1OC	61 nM	–	42%	–	–
CCN(CC)CCN1CCCN(c2nc(Nc3ccc(Cl)cc3)c3cc(OC)c(OC)cc3n2)CC1	92 nM	15%	42%	–	–
COc1cc2nc(N3CCC(N4CCCC4)CC3)nc(Nc3ccc(Cl)cc3)c2cc1OC	24 nM	–	–	150 nM	42.5%
COc1cc2nc(N3CCC(N4CCCC4)CC3)nc(Nc3ccc(F)cc3)c2cc1OC	31 nM	–	–	–	–
COc1cc2nc(N3CCCN(CCN4CCCC4)CC3)nc(Nc3ccc(Cl)cc3)c2cc1OC	150 nM	–	–	–	–
COc1cc2nc(N3CCCN(C4CCCCC4)CC3)nc(Nc3ccc(Cl)cc3)c2cc1OC	550 nM	–	–	–	–
